Measurements: article PMC6917776, “Discovery of a chemical probe for PRDM9” (Nature Communications, 2019)
“And” between values parts separate entries of the source, which are not always exact repeats. Equal values may be shown once. Read-outs that look alike come from different tables or passages of the source.

How the values were obtained:
[1] = biological target: T1, PRDM9 (amino acids: 195–415) (Homo sapiens, UniProt Q9NQV7); assay: PRDM9 methyltransferase activity assay (3H-SAM scintillation proximity assay); format: biochemical
T1 construct: PRDM9 (amino acids: 195–415)
T1 sequence (Q9NQV7 195-415): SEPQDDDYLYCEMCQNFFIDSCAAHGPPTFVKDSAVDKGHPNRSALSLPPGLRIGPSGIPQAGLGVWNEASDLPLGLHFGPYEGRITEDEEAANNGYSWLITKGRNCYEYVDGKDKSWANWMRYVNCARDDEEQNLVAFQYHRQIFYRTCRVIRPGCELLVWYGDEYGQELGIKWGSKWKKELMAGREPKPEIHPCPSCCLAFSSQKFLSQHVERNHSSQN
Method: Methyltransferase activity assays for PRDM9 (amino acids: 195–415) were performed by monitoring the incorporation of tritium-labeled methyl group from ^3H-SAM to H3 (1–25) peptide using scintillation proximity assay (SPA). The enzymatic reactions were performed at 23 °C with 30 min incubation in 20 mM Tris-HCl (pH 7.5), 5 mM DTT, 0.01% Triton X-100 and 1% DMSO containing 71 μM of SAM (5 μM of ^3H-SAM), 4 μM of biotinylated H3 (1–25) peptide and 5 nM of PRDM9. For PRDM7, reactions were performed at 23 °C with 90 min incubation in 20 mM BTP pH 9.0, 5 mM DTT, 0.01% Triton X-100 and 1% DMSO containing 900 μM of SAM (5 μM of ^3H-SAM), 4 μM of biotinylated H3 (1–25) peptide and 100 nM of enzyme. […] To stop the reactions, 10 μL of 7.5 M guanidine hydrochloride was added to 10 μL of reaction mixture, followed by 60 μL of buffer (20 mM Tris, pH 8.0), mixed, and transferred to a 384-well streptavidin coated Flash-plate. After mixing, the mixtures in Flash-plate were incubated for 2 h, and the CPM counts were measured using TopCount plate reader. All enzymatic reactions were performed in triplicate, and IC50 values were determined by fitting the data to Four Parameter Logistic equation using the GraphPad Prism software.

[2] = system: CAL851; assay: CelltiterGlo viability cell assay; format: cell-based; settings: up to 30 μM; days 3 and 6; Prdm9 expressing line
Method: (§1) Supplementary Figure 13. […] Viability of
(§2) (a) Multiple Myeloma lines and (b) Breast Cancer cell lines following 3 or 6 days treatment with […]
(§3) manufacturer’s instructions as described in the Supplementary methods. Data are normalized to DMSO control. N=3 biological replicates, +/- SEM. Source data are provided as a Source Data […]
(§4) CelltiterGlo viability cell assay
(§5) Cells were seeded in 96 well plates at per-well densities of 10000 (MDA-MB436, ATCC-HTB130), 15000 (8226, kind gift from Rodger Tiedemann, Princess Margaret Cancer Centre), […]
(§6) kind gift from Rodger Tiedemann, Princess Margaret Cancer Centre) and 50000 (CAL851, kind gift from Mathieu Lupien, Princess Margaret Cancer Centre) and were treated at increasing concentrations of compounds ranging from 0.01 μM to 30 μM and assessed for proliferation using CelltiterGlo (Promega) following manufacturer’s instructions, as readout on days 3 and 6 as indicated. All cell lines were mycoplasma negative, as determined by MycoAlert™ Mycoplasma Detection Kit(Lonza). […]

[3] = system: HCC1143; assay: CelltiterGlo viability cell assay; format: cell-based; settings: up to 30 μM; days 3 and 6; matched control line
Method: as §1, §2, §3, §4, §5, §6

[4] = system: RPMI-8226; assay: CelltiterGlo viability cell assay; format: cell-based; settings: up to 30 μM; days 3 and 6; matched control line
Method: as §1, §2, §3, §4, §5, §6

SMILES: COc1cc(OC)cc(-c2noc(N3CCN(C)C4(CCN(c5ccnc(C)c5)CC4)C3)n2)c1 [MRK-740]
- PRDM9-Activity %, single experiments ([1]; 0.00305176 µM compound, 0.00305176 µM): 94.4267% and 95.25% and 97.1828% and 103.784% and 103.017%
- activity at 0.00305176 µM ([1]; 0.00305176 µM compound, n=6, read-out: PRDM9-Activity %, Average): 97.6%
- activity at 0.00305176 µM ([1]; 0.00305176 µM compound, read-out: PRDM9-Activity %, single experiments): 91.9%
- PRDM9-Activity %, single experiments ([1]; 0.00610352 µM compound, 0.00610352 µM): 85.0663% and 85.348% and 95.7626% and 97.3747% and 91.3487%
- activity at 0.00610352 µM ([1]; 0.00610352 µM compound, n=6 MRK-740, n=3 MRK-740-NC, read-out: PRDM9-Activity %, Average): 90%
- activity at 0.00610352 µM ([1]; 0.00610352 µM compound, read-out: PRDM9-Activity %, single experiments): 84.8%
- PRDM9-Activity %, single experiments ([1]; 0.012207 µM compound, 0.012207 µM): 78.4578% and 80.6028% and 86.1288% and 97.1828% and 87.357%
- activity at 0.012207 µM ([1]; 0.012207 µM compound, n=6 MRK-740, n=3 MRK-740-NC, read-out: PRDM9-Activity %, Average): 84.8%
- activity at 0.012207 µM ([1]; 0.012207 µM compound, read-out: PRDM9-Activity %, single experiments): 79.3%
- PRDM9-Activity %, single experiments ([1]; 0.0244141 µM compound, 0.0244141 µM): 75.966% and 79.6061% and 75.3435% and 72.6952% and 77.5697%
- activity at 0.0244141 µM ([1]; 0.0244141 µM compound, n=6 MRK-740, n=3 MRK-740-NC, read-out: PRDM9-Activity %, Average): 75.8%
- activity at 0.0244141 µM ([1]; 0.0244141 µM compound, read-out: PRDM9-Activity %, single experiments): 73.4%
- PRDM9-Activity %, single experiments ([1]; 0.0488281 µM compound, 0.0488281 µM): 59.9538% and 62.5322% and 63.7138% and 61.8331% and 62.9462%
- activity at 0.0488281 µM ([1]; 0.0488281 µM compound, n=6 MRK-740, n=3 MRK-740-NC, read-out: PRDM9-Activity %, Average): 62.6%
- activity at 0.0488281 µM ([1]; 0.0488281 µM compound, read-out: PRDM9-Activity %, single experiments): 64.9%
- PRDM9-Activity %, single experiments ([1]; 0.0976562 µM compound, 0.0976562 µM): 47.0617% and 46.4983% and 51.163% and 50.5105% and 50.3953%
- activity at 0.0976562 µM ([1]; 0.0976562 µM compound, n=6 MRK-740, n=3 MRK-740-NC, read-out: PRDM9-Activity %, Average): 49%
- activity at 0.0976562 µM ([1]; 0.0976562 µM compound, read-out: PRDM9-Activity %, single experiments): 48.6%
- PRDM9-Activity %, single experiments ([1]; 0.195312 µM compound, 0.195312 µM): 35.2529% and 35.7729% and 39.7252% and 37.4223% and 38.9192%
- activity at 0.195312 µM ([1]; 0.195312 µM compound, n=6 MRK-740, n=3 MRK-740-NC, read-out: PRDM9-Activity %, Average): 36.7%
- activity at 0.195312 µM ([1]; 0.195312 µM compound, read-out: PRDM9-Activity %, single experiments): 33%
- PRDM9-Activity %, single experiments ([1]; 0.390625 µM compound, 0.390625 µM): 22.6425% and 27.2793% and 26.6754% and 26.8289% and 30.4368%
- activity at 0.390625 µM ([1]; 0.390625 µM compound, n=6 MRK-740, n=3 MRK-740-NC, read-out: PRDM9-Activity %, Average): 26.6%
- activity at 0.390625 µM ([1]; 0.390625 µM compound, read-out: PRDM9-Activity %, single experiments): 25.4%
- PRDM9-Activity %, single experiments ([1]; 0.78125 µM compound, 0.78125 µM): 15.1455% and 15.3839% and 20.1505% and 16.3507% and 20.304%
- activity at 0.78125 µM ([1]; 0.78125 µM compound, n=6 MRK-740, n=3 MRK-740-NC, read-out: PRDM9-Activity %, Average): 17.5%
- activity at 0.78125 µM ([1]; 0.78125 µM compound, read-out: PRDM9-Activity %, single experiments): 17.8%
- PRDM9-Activity %, single experiments ([1]; 1.5625 µM compound, 1.5625 µM): 9.274% and 10.0537% and 12.7044% and 15.0841% and 15.1608%
- activity at 1.5625 µM ([1]; 1.5625 µM compound, n=6 MRK-740, n=3 MRK-740-NC, read-out: PRDM9-Activity %, Average): 12%
- activity at 1.5625 µM ([1]; 1.5625 µM compound, read-out: PRDM9-Activity %, single experiments): 9.56%
- PRDM9-Activity %, single experiments ([1]; 3.125 µM compound, 3.125 µM): 7.757% and 8.32% and 10.555% and 9.672% and 9.096%
- activity at 3.125 µM ([1]; 3.125 µM compound, n=6 MRK-740, n=3 MRK-740-NC, read-out: PRDM9-Activity %, Average): 8.8%
- activity at 3.125 µM ([1]; 3.125 µM compound, read-out: PRDM9-Activity %, single experiments): 7.39%
- PRDM9-Activity %, single experiments ([1]; 6.25 µM compound, 6.25 µM): 4.5935% and 6.024% and 7.753% and 9.173% and 6.448%
- activity at 6.25 µM ([1]; 6.25 µM compound, n=6 MRK-740, n=3 MRK-740-NC, read-out: PRDM9-Activity %, Average): 6.57%
- activity at 6.25 µM ([1]; 6.25 µM compound, read-out: PRDM9-Activity %, single experiments): 5.42%
- PRDM9-Activity %, single experiments ([1]; 12.5 µM compound, 12.5 µM): 3.185% and 3.8568% and 5.834% and 4.491% and 4.606%
- activity at 12.5 µM ([1]; 12.5 µM compound, n=6 MRK-740, n=3 MRK-740-NC, read-out: PRDM9-Activity %, Average): 4.37%
- activity at 12.5 µM ([1]; 12.5 µM compound, read-out: PRDM9-Activity %, single experiments): 4.27%
- PRDM9-Activity %, single experiments ([1]; 25 µM compound, 25 µM): 2.7301% and 2.167% and 2.752% and 4.337% and 5.373% and 4.529%
- activity at 25 µM ([1]; 25 µM compound, n=6 MRK-740, n=3 MRK-740-NC, read-out: PRDM9-Activity %, Average): 3.65%
- PRDM9-Activity %, single experiments ([1]; 50 µM compound, 50 µM): 2.405% and 1.7984% and 3.488% and 4.913% and 5.45% and 4.529%
- activity at 50 µM ([1]; 50 µM compound, n=6 MRK-740, n=3 MRK-740-NC, read-out: PRDM9-Activity %, Average): 3.76%
- Activity % ([1]; PRDM9, 1µM compound, Exp1, Exp2, 1 µM): 11%
- activity at 1 µM ([1]; PRDM9, 1µM compound, Exp1, Exp2, read-out: Activity %): 10%
- Activity % ([1]; PRDM9, 10µM compound, Exp1, Exp2, 10 µM): 2.5%
- activity at 10 µM ([1]; PRDM9, 10µM compound, Exp1, Exp2, read-out: Activity %): 3%
- IC50 ([1]; biotinylated H3 (1–25) peptide, balanced conditions, mean ± standard deviation): 80 ± 16 nM
- Effect on proliferation (in words) [2]: did not have any significant effect
- Effect on proliferation (in words) [3]: did not have any significant effect
- Effect on proliferation (in words) [4]: did not have any significant effect
